Results on 19 molecules are retold here after patent publication US5753617A, “Peptide inhibitors of cellular adhesion” (Centocor, Inc., priority 1995, dated 1998).

Where a SMILES comes first, the peptide text is derived from it. Bridges are numbered along the chain shown (N, C = ends). [ ]: non-standard residue; d: D form. NMeF = CN[C@@H](Cc1ccccc1)C(=O)O; Tic = O=C(O)[C@@H]1Cc2ccccc2CN1; dΔPro = O=C(O)[C@H]1C=CCN1; Dap = NC[C@H](N)C(=O)O

The target of one assay is T1, P-selectin (Homo sapiens, UniProt P16109).
T1 construct: P-selectin is isolated from human platelet lysates; from tissue; host or cells: human platelets (outdated platelet packs from a blood bank)
T1 sequence (P16109 42-830): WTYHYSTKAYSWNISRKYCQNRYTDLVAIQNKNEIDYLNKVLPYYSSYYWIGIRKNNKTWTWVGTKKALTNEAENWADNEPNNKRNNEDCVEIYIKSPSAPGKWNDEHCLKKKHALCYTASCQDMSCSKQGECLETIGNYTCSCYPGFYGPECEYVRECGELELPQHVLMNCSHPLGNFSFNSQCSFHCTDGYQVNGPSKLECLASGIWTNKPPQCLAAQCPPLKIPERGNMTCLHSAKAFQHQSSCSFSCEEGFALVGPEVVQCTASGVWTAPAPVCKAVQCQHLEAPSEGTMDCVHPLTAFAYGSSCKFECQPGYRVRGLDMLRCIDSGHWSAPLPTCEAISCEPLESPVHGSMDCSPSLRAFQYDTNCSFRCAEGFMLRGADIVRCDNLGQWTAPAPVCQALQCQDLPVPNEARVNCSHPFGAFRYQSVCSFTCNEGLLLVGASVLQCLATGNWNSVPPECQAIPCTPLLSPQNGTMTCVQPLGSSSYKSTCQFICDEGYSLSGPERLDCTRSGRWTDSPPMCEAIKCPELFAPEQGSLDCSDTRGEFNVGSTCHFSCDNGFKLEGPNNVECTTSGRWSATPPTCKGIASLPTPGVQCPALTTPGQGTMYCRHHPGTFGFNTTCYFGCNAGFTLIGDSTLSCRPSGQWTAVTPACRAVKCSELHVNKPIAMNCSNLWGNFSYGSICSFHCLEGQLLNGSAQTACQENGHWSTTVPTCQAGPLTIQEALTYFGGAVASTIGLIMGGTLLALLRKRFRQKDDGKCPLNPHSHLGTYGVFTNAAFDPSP
The assay is described as follows: Inhibition of human neutrophil adhesion to purified P-selectin immobilized on plastic wells. It counts as cell-based. The conditions noted are these: human neutrophils, purified human P-selectin. The procedure, abridged:
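Isolated human neutrophils (2×10^5 per well) in HBSS with Ca2+/Mg2+ and HSA added to wells coated overnight at 4° C with platelet-derived P-selectin (5 micrograms/mL), HSA-blocked; 20 min at 22° C. Nonadherent cells removed by inverted centrifugation at 150 g; adherent cells quantified by myeloperoxidase activity.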
In the case of `CC[C@H](C)[C@H](NC(=O)[C@H](CCCCN)NC(=O)[C@@H](N)CCCNC(=N)N)C(=O)NCC(=O)NCC(=O)N[C@H]1CCCCNC(=O)CC[C@@H](C(N)=O)NC(=O)[C@H](Cc2c[nH]c3ccccc23)NC(=O)[C@H]([C@@H](C)O)NC(=O)[C@H](Cc2c[nH]c3ccccc23)NC1=O` [SEQ ID NO:1, Arg-Lys-Ile-Gly-Gly-cyclo(Lys-Trp-Thr-Trp-Glu)-NH2] (H-RKIGGKWTWE-NH2; lactam 6-10), the “biological activity / inhibiting neutrophil adhesion to P-selectin (result in words)” value is “inactive”.

The same assay, now with this note: inhibiting the binding of human neutrophils to P-selectin.
For orientation: IC50 means the concentration at which inhibition is half-maximal. The low end stands for greater potency, the high end for weaker potency. Consider `CC(C)[C@@H](NC(=O)[C@@H](Cc1c[nH]c2ccccc12)NC(=O)[C@H](NC(=O)[C@@H](Cc1c[nH]c2ccccc12)NC(=O)[C@H]1CSSC[C@@H](NC(=O)[C@@H](CCCCN)NC(=O)[C@H](N)CCCNC(=N)N)C(=O)NCC(=O)N[C@@H](CCCNC(=N)N)C(=O)N1)[C@H](C)O)C(N)=O` [(40)] (H-[dR][dK][dC]GR[dC][dW][dT][dW][dV]-NH2; disulfide 3-6), for which the IC50 was 324 µM. `CC(C)[C@@H](NC(=O)[C@@H](Cc1c[nH]c2ccccc12)NC(=O)[C@H](NC(=O)[C@@H](Cc1c[nH]c2ccccc12)NC(=O)[C@H]1CSSC[C@@H](NC(=O)[C@@H](CCCCN)NC(=O)[C@H](N)CCCNC(=N)N)C(=O)N[C@H](CCC(N)=O)C(=O)N[C@@H](CCC(N)=O)C(=O)N1)[C@H](C)O)C(N)=O` [(114)] (H-[dR][dK][dC][dQ]Q[dC][dW][dT][dW][dV]-NH2; disulfide 3-6) gave an IC50 of 12.1 µM.

Regarding `CC(C)[C@@H](NC(=O)[C@@H](Cc1c[nH]c2ccccc12)NC(=O)[C@H](NC(=O)[C@@H](Cc1c[nH]c2ccccc12)NC(=O)[C@H]1CSSC[C@@H](NC(=O)[C@@H](CCCCN)NC(=O)[C@H](N)CCCNC(=N)N)C(=O)NCC(=O)N2Cc3ccccc3C[C@H]2C(=O)N1)[C@H](C)O)C(N)=O` [(86)] (H-[dR][dK][dC]G[Tic][dC][dW][dT][dW][dV]-NH2; disulfide 3-6), the IC50 was 83.4 µM. Take `CC[C@H](C)[C@@H]1NC(=O)[C@H](NC(=O)[C@@H](CCCCN)NC(=O)[C@H](N)CCCNC(=N)N)CSSC[C@H](C(=O)N[C@H](Cc2c[nH]c3ccccc23)C(=O)N[C@@H](C(=O)N[C@H](Cc2c[nH]c3ccccc23)C(=O)N[C@@H](C(N)=O)C(C)C)[C@H](C)O)NC(=O)[C@@H]2CCCN2C1=O` [(95)] (H-[dR][dK][dC]IP[dC][dW][dT][dW][dV]-NH2; disulfide 3-6): the IC50 amounted to 26.8 µM.

As to `CC[C@@H](C)[C@@H](NC(=O)[C@@H](CCCCN)NC(=O)[C@H](N)CCCNC(=N)N)C(=O)NCC(=O)N[C@@H]1CSSC[C@H](C(=O)N[C@@H](C(=O)N[C@@H](C(N)=O)C(C)C)[C@H](C)O)NC(=O)[C@@H](Cc2c[nH]c3ccccc23)NC(=O)[C@@H]([C@H](C)CC)NC1=O` [(32)] (H-[dR][dK][dI]G[dC][dI][dW][dC][dT][dV]-NH2; disulfide 5-8), the IC50 is 23 µM. On to `CC(C)[C@@H](NC(=O)[C@@H](Cc1c[nH]c2ccccc12)NC(=O)[C@H](NC(=O)[C@@H](Cc1c[nH]c2ccccc12)NC(=O)[C@@H]1CSSC[C@H](NC(=O)[C@@H](CCCCN)NC(=O)[C@H](N)CCCNC(=N)N)C(=O)NCC(=O)NCC(=O)N1)[C@H](C)O)C(N)=O` [(113)] (H-[dR][dK]CGGC[dW][dT][dW][dV]-NH2; disulfide 3-6), for which the IC50 is 0.7 µM. Regarding `CC(C)[C@@H](NC(=O)[C@@H](Cc1ccc(O)cc1)NC(=O)[C@H](NC(=O)[C@@H](Cc1c[nH]c2ccccc12)NC(=O)[C@H]1CSSC[C@@H](NC(=O)[C@@H](CCCCN)NC(=O)[C@H](N)CCCNC(=N)N)C(=O)NCC(=O)N[C@@H](Cc2ccccc2)C(=O)N1)[C@H](C)O)C(N)=O` [(63)] (H-[dR][dK][dC]GF[dC][dW][dT][dY][dV]-NH2; disulfide 3-6), the IC50 was found to be 19.3 µM. Regarding `CC(C)[C@@H](NC(=O)[C@H]1CCCN1C(=O)[C@H](NC(=O)[C@@H](Cc1c[nH]c2ccccc12)NC(=O)[C@H]1CSSC[C@@H](NC(=O)[C@@H](CCCCN)NC(=O)[C@H](N)CCCNC(=N)N)C(=O)NCC(=O)N[C@@H](Cc2ccccc2)C(=O)N1)[C@H](C)O)C(N)=O` [(77)] (H-[dR][dK][dC]GF[dC][dW][dT][dP][dV]-NH2; disulfide 3-6), the IC50 was found to be 2270 µM. `CC[C@@H](C)[C@@H](NC(=O)[C@@H](CCCCN)NC(=O)[C@H](N)CCCNC(=N)N)C(=O)NCC(=O)N[C@@H]1CSSC[C@H](C(=O)N[C@@H](C(=O)N[C@@H](C(N)=O)C(C)C)[C@H](C)O)NC(=O)[C@@H](Cc2c[nH]c3ccccc23)NC(=O)[C@@H]([C@H](C)CC)NC1=O` [(108)] (H-[dR][dK][dI]G[dC][dI][dW][dC][dT][dV]-NH2; disulfide 5-8) gave an IC50 of 23.8 µM. For the molecule `CC[C@H](C)[C@@H]1NC(=O)CNC(=O)[C@@H](NC(=O)[C@@H](NC(=O)[C@H](CCCCN)NC(=O)[C@@H](N)CCCNC(=N)N)[C@@H](C)CC)CCCCNC(=O)CC[C@@H](C(=O)N[C@@H](Cc2c[nH]c3ccccc23)C(=O)N[C@H](C(N)=O)C(C)C)NC(=O)[C@H](Cc2c[nH]c3ccccc23)NC1=O` [(31)] (H-RKIKGIWEWV-NH2; lactam 4-8), the IC50 is 18 µM. With `CC(C)[C@@H](NC(=O)[C@@H](Cc1c[nH]c2ccccc12)NC(=O)[C@H](NC(=O)[C@@H](Cc1c[nH]c2ccccc12)NC(=O)[C@H]1CSSC[C@@H](NC(=O)[C@@H](CCCCN)NC(=O)[C@@H](N)CCCNC(=N)N)C(=O)NCC(=O)N[C@@H](Cc2ccccc2)C(=O)N1)[C@H](C)O)C(N)=O` [(101)] (H-R[dK][dC]GF[dC][dW][dT][dW][dV]-NH2; disulfide 3-6), the IC50 came out at 33.9 µM. `CC(C)[C@H](NC(=O)[C@H](Cc1c[nH]c2ccccc12)NC(=O)[C@@H](NC(=O)[C@H](Cc1c[nH]c2ccccc12)NC(=O)[C@@H]1CC(=O)NC[C@H](NC(=O)[C@H](CCCCN)NC(=O)[C@@H](N)CCCNC(=N)N)C(=O)NCC(=O)NCC(=O)N1)[C@@H](C)O)C(N)=O` [(22)] (H-RK[Dap]GGDWTWV-NH2; lactam 3-6) returned an IC50 of 13 µM. As to `CC[C@H](C)[C@@H]1NC(=O)[C@H]([C@@H](C)CC)NC(=O)[C@H](NC(=O)[C@@H](CCCCN)NC(=O)[C@H](N)CCCNC(=N)N)CSSC[C@H](C(=O)N[C@H](Cc2c[nH]c3ccccc23)C(=O)N[C@@H](C(=O)N[C@H](Cc2c[nH]c3ccccc23)C(=O)N[C@@H](C(N)=O)C(C)C)[C@H](C)O)NC1=O` [(49)] (H-[dR][dK][dC]II[dC][dW][dT][dW][dV]-NH2; disulfide 3-6), the IC50 was 7.1 µM.

`CC[C@H](C)[C@@H]1NC(=O)CNC(=O)[C@@H](NC(=O)[C@@H](NC(=O)[C@H](CCCCN)NC(=O)[C@@H](N)CCCNC(=N)N)[C@@H](C)CC)CCC(=O)NCCCC[C@@H](C(=O)N[C@@H](Cc2c[nH]c3ccccc23)C(=O)N[C@H](C(N)=O)C(C)C)NC(=O)[C@H](Cc2c[nH]c3ccccc23)NC1=O` [(30)] (H-RKIEGIWKWV-NH2; lactam 4-8) showed a half-inhibitory concentration (IC50) of 93 µM. For the molecule `CC(C)[C@@H](NC(=O)[C@@H](Cc1c[nH]c2ccccc12)NC(=O)[C@H](NC(=O)[C@@H](Cc1c[nH]c2ccccc12)NC(=O)[C@H]1CSSC[C@@H](NC(=O)[C@@H](CCCCN)NC(=O)[C@H](N)CCCNC(=N)N)C(=O)NCC(=O)N(C)[C@@H](Cc2ccccc2)C(=O)N1)[C@H](C)O)C(N)=O` [(72)] (H-[dR][dK][dC]G[NMeF][dC][dW][dT][dW][dV]-NH2; disulfide 3-6), the concentration for half-maximal inhibition (IC50) worked out at 37.7 µM. In the case of `CC(C)[C@@H](NC(=O)[C@@H](Cc1c[nH]c2ccccc12)NC(=O)[C@H](NC(=O)[C@@H](Cc1c[nH]c2ccccc12)NC(=O)[C@H]1CSSC[C@@H](NC(=O)[C@@H](CCCCN)NC(=O)[C@H](N)CCCNC(=N)N)C(=O)NCC(=O)N2CCC[C@@H]2C(=O)N1)[C@H](C)O)C(N)=O` [(16)] (H-[dR][dK][dC]G[dP][dC][dW][dT][dW][dV]-NH2; disulfide 3-6), the IC50 is 1 µM.

Turning to `CC(C)[C@@H](NC(=O)[C@@H](Cc1c[nH]c2ccccc12)NC(=O)[C@H](NC(=O)[C@@H](Cc1c[nH]c2ccccc12)NC(=O)[C@H]1CSSC[C@@H](NC(=O)[C@@H](CCCCN)NC(=O)[C@H](N)CCCNC(=N)N)C(=O)NCC(=O)N2CC=C[C@@H]2C(=O)N1)[C@H](C)O)C(N)=O` [(36)] (H-[dR][dK][dC]G[dΔPro][dC][dW][dT][dW][dV]-NH2; disulfide 3-6), the IC50 was 267 µM.

Molecule `CC(C)[C@@H](NC(=O)[C@@H](Cc1c[nH]c2ccccc12)NC(=O)[C@H](NC(=O)[C@@H](Cc1c[nH]c2ccccc12)NC(=O)[C@H]1CSSC[C@H](NC(=O)[C@@H](CCCCN)NC(=O)[C@H](N)CCCNC(=N)N)C(=O)NCC(=O)N[C@@H](Cc2ccccc2)C(=O)N1)[C@H](C)O)C(N)=O` [(35)] (H-[dR][dK]CGF[dC][dW][dT][dW][dV]-NH2; disulfide 3-6) registered an IC50 of 11.6 µM.
